We go through 1 molecule from patent EP0168709A1, “Process for preparing chlorinated phosphorylmethylcarbonyl derivatives, and intermediates for their preparation” (BAYER AG, priority 1984, dated 1986).

What all share (assay type): in vivo
One assay deals with Baum-wolle. The experiment in a line: Pre-emergence test, greenhouse. The settings on record: 0,5 kg/ha, rated after three weeks vs untreated control, 0 % = no effect, 100 % = total destruction. The text has this:
(§1) Pre-emergence-Test - Gewächshaus
(§2) Lösungsmittel: 5 Gewichtsteile Aceton
(§3) Emulgator: 1 Gewichtsteil Alkylarylpolyglykolether
(§4) Zur Herstellung einer zweckmäßigen Wirkstoffzubereitung vermischt man 1 Gewichtsteil Wirkstoff mit der angegebenen Menge Lösungsmittel, gibt die angegebene Menge Emulgator zu und verdünnt das Konzentrat mit Wasser auf die gewünschte Konzentration.
(§5) Samen der Testpflanzen werden in normalen Boden ausgesät und nach 24 Stunden mit der Wirkstoffzubereitung begossen. Dabei hält man die Wassermenge pro Flächeneinheit zweckmäßigerweise konstant. Die Wirkstoffkonzentration in der Zubereitung spielt keine Rolle, entscheidend ist nur die Aufwandmenge des Wirkstoffs pro Flächeneinheit. Nach drei Wochen wird der Schädigungsgrad der Pflanzen bonitiert in % Schädigung im Vergleich zur Entwicklung der unbehandelten Kontrolle. Es bedeuten: • O % = keine Wirkung (wie unbehandelte Kontrolle) 100 % = totale Vernichtung

The test system of the next assay is Soja-bohnen. Put plainly: Pre-emergence test, greenhouse. The settings on record: 0,5 kg/ha, rated after three weeks vs untreated control, 0 % = no effect, 100 % = total destruction.
Text: as §1, §2, §3, §4, §5

The test system of a further assay is Sorghum halepense. Put plainly: Pre-emergence test, greenhouse. The settings on record: 0,5 kg/ha, rated after three weeks vs untreated control, 0 % = no effect, 100 % = total destruction.
Text: as §1, §2, §3, §4, §5

For the next assay, the system named is Testpflanzen. Put plainly: Pre-emergence test, greenhouse (overall statement). The settings on record: result in words.
Text: as §1, §2, §3, §4, §5

On to `CC(C)CC(=O)C(Cl)(Cl)P(=O)(OC(C)C)OC(C)C` [Beispiel 1, O,O-Di-i-propyl-(1,1-dichlor-4-methyl-2-oxo-pentan)-phosphonsäureester], for which the “Schädigungsgrad der Pflanzen (% Schädigung), Baum-wolle” value in the assay with Baum-wolle worked out at 0%. Besides, in the assay with Soja-bohnen, the “Schädigungsgrad der Pflanzen (% Schädigung), Soja-bohnen” value is 0%. Further, the “Schädigungsgrad der Pflanzen (% Schädigung), Sorghum halepense” value with Sorghum halepense worked out at 100%. Also, the Wirksamkeit entry in the assay on Testpflanzen was “ausgezeichnete Wirksamkeit”.
